These results are taken from ChEMBL document CHEMBL3045422, “Synthesis, characterization, and antimicrobial screening of some Mannich base sydnone derivatives” (2013).

Converted amounts (≈) assume the structure as drawn.

What all share (format): functional
Test [1] deals with Candida albicans. Description: microbe, parasite or virus in culture.
Test [2] has as its system Pseudomonas aeruginosa. Description: microbe, parasite or virus in culture.
The subject of test [3] is Escherichia coli. Description: microbe, parasite or virus in culture.
Test [4] relates to Staphylococcus aureus. Description: microbe, parasite or virus in culture.
For test [5], the system named is Candida albicans. Description: Antifungal activity against Candida albicans at 300 ug/ml. The following applies: read-out: IZ.
Test [6] relates to Pseudomonas aeruginosa. Description: microbe, parasite or virus in culture. Conditions: read-out: IZ.
Test [7] concerns Escherichia coli. Description: microbe, parasite or virus in culture. The following applies: read-out: IZ.
Test [8] relates to Bacillus subtilis. Description: microbe, parasite or virus in culture. The following applies: read-out: IZ.
Test [9] has as its system Staphylococcus aureus. Description: microbe, parasite or virus in culture. Conditions: read-out: IZ.
For test [10], the system named is Bacillus subtilis. Description: microbe, parasite or virus in culture.

Take `COc1ccc(-[n+]2noc([O-])c2Cn2c(-c3ccccc3[N+](=O)[O-])nc3ccccc32)cc1`: the MIC in test [1] was 200 mg/L (≈ 451 µM); in test [2], 500 mg/L (≈ 1130 µM); in [3] it was 200 mg/L (≈ 451 µM); in test [4], 40 mg/L (≈ 90.2 µM); in test [10], 300 mg/L (≈ 677 µM). Moreover, the zone of inhibition at 300 µg/mL stood at 14 mm in test [5]; 10 mm in test [6]; 14 mm in [7]; 12 mm in test [8]; 21 mm in test [9].
`CCOc1ccc(NCc2c([O-])on[n+]2-c2ccc(OC)cc2)cc1`: the MIC turned out to be 200 mg/L (≈ 586 µM) in test [1]; 100 mg/L (≈ 293 µM) in test [2]; 200 mg/L (≈ 586 µM) in [3]; 40 mg/L (≈ 117 µM) in test [4]; 80 mg/L (≈ 234 µM) in test [10]. Further, the zone of inhibition at 300 µg/mL in [5] worked out at 16 mm; in test [6], 15 mm; in [7], 13 mm; in test [8] it was 16 mm; in test [9] it was 17 mm.
On to `COc1ccc(-[n+]2noc([O-])c2Cn2c(-c3ccc(Cl)cc3)nc3ccccc32)cc1`, for which the MIC in test [1] was 200 mg/L (≈ 462 µM); in [2], 500 mg/L (≈ 1160 µM); in [3], 200 mg/L (≈ 462 µM); in test [4], 300 mg/L (≈ 693 µM); in [10], 300 mg/L (≈ 693 µM). Also, the zone of inhibition at 300 µg/mL in test [5] is 14 mm; in test [6] it was 10 mm; in [7], 15 mm; in test [8], 12 mm; in test [9] it was 12 mm.
Take `COc1ccc(-[n+]2noc([O-])c2CNc2nc3ccc(Cl)cc3s2)cc1`: the MIC came out at 100 mg/L (≈ 257 µM) in [1]; 200 mg/L (≈ 514 µM) in test [2]; 200 mg/L (≈ 514 µM) in [3]; 200 mg/L (≈ 514 µM) in test [4]; 200 mg/L (≈ 514 µM) in test [10]. The zone of inhibition at 300 µg/mL in test [5] worked out at 16 mm; in test [6] it was 13 mm; in test [7], 13 mm; in test [8], 15 mm; in test [9] it was 14 mm.
Consider `COc1ccc(-c2nc3ccccc3n2Cc2c([O-])on[n+]2-c2ccc(OC)cc2)cc1`, for which the MIC in [1] worked out at 200 mg/L (≈ 467 µM); in [2], 300 mg/L (≈ 700 µM); in [3], 300 mg/L (≈ 700 µM); in test [4] it was 300 mg/L (≈ 700 µM); in test [10], 200 mg/L (≈ 467 µM). Besides, the zone of inhibition at 300 µg/mL was 14 mm in test [5]; 12 mm in test [6]; 15 mm in test [7]; 12 mm in test [8]; 11 mm in [9].
Regarding `CC1(C)S[C@@H]2[C@H](NC(=O)Cc3ccccc3)C(=O)N2[C@H]1C(=O)O` [PENICILLIN G], the MIC turned out to be 0.25 mg/L (≈ 0.748 µM) in test [2], 0.5 mg/L (≈ 1.5 µM) in [3], 0.125 mg/L (≈ 0.374 µM) in test [4] and 0.25 mg/L (≈ 0.748 µM) in test [10]. In addition, the zone of inhibition at 300 µg/mL came out at 38 mm in [6], 30 mm in test [7], 35 mm in test [8] and 45 mm in test [9].
For the molecule `COc1ccc(-[n+]2noc([O-])c2Cn2cnc3ccccc32)cc1`, the MIC in [1] came out at 300 mg/L (≈ 931 µM); in [2] it was 500 mg/L (≈ 1550 µM); in test [3] it was 500 mg/L (≈ 1550 µM); in [4] it was 300 mg/L (≈ 931 µM); in test [10], 300 mg/L (≈ 931 µM). The zone of inhibition at 300 µg/mL in [5] is 12 mm; in test [6], 10 mm; in test [7], 10 mm; in [8], 11 mm; in test [9] it was 11 mm.
Consider `O=C(O)c1cn(C2CC2)c2cc(N3CCNCC3)c(F)cc2c1=O` [CIPROFLOXACIN], for which the MIC in test [3] worked out at 25 mg/L (≈ 75.4 µM); in test [4] it was 50 mg/L (≈ 151 µM). In addition, the zone of inhibition at 300 µg/mL in test [6] is 23 mm; in test [8], 31 mm; in test [9], 30 mm.
With `COc1ccc(-[n+]2noc([O-])c2CNc2nc3ccc(C#N)cc3s2)cc1`, the MIC in test [1] came to 100 mg/L (≈ 264 µM); in test [2] it was 500 mg/L (≈ 1320 µM); in test [3], 300 mg/L (≈ 791 µM); in test [4], 80 mg/L (≈ 211 µM); in test [10] it was 60 mg/L (≈ 158 µM). Moreover, the zone of inhibition at 300 µg/mL in test [5] stood at 17 mm; in [6], 10 mm; in test [7] it was 12 mm; in [8] it was 17 mm; in test [9], 16 mm.
For the molecule `COc1ccc(-[n+]2noc([O-])c2CNc2nc3cc([N+](=O)[O-])ccc3s2)cc1`, the MIC was 200 mg/L (≈ 501 µM) in [1]; 500 mg/L (≈ 1250 µM) in test [2]; 300 mg/L (≈ 751 µM) in test [3]; 500 mg/L (≈ 1250 µM) in [4]; 500 mg/L (≈ 1250 µM) in test [10]. The zone of inhibition at 300 µg/mL in [5] was 14 mm; in [6], 10 mm; in test [7], 12 mm; in test [8], 10 mm; in test [9], 10 mm.
`COc1ccc(-[n+]2noc([O-])c2CNc2ccc(F)cc2)cc1`: the MIC in [1] was found to be 100 mg/L (≈ 317 µM); in test [2], 300 mg/L (≈ 951 µM); in [3], 100 mg/L (≈ 317 µM); in test [4], 200 mg/L (≈ 634 µM); in test [10], 200 mg/L (≈ 634 µM). The zone of inhibition at 300 µg/mL is 17 mm in [5]; 11 mm in test [6]; 17 mm in test [7]; 16 mm in test [8]; 14 mm in [9].
Consider `COc1ccc(-[n+]2noc([O-])c2CNc2nc3ccc(F)cc3s2)cc1`, for which the MIC was found to be 200 mg/L (≈ 537 µM) in [1]; 500 mg/L (≈ 1340 µM) in test [2]; 300 mg/L (≈ 806 µM) in test [3]; 300 mg/L (≈ 806 µM) in test [4]; 200 mg/L (≈ 537 µM) in test [10]. In addition, the zone of inhibition at 300 µg/mL in test [5] is 13 mm; in test [6], 10 mm; in test [7], 12 mm; in [8] it was 12 mm; in test [9], 12 mm.
As for `COc1ccc(-[n+]2noc([O-])c2CNc2nc3ccc(Br)cc3s2)cc1`, the MIC turned out to be 80 mg/L (≈ 185 µM) in [1]; 200 mg/L (≈ 462 µM) in [2]; 300 mg/L (≈ 692 µM) in test [3]; 100 mg/L (≈ 231 µM) in test [4]; 100 mg/L (≈ 231 µM) in test [10]. Also, the zone of inhibition at 300 µg/mL in [5] was 21 mm; in [6], 12 mm; in test [7], 11 mm; in test [8], 15 mm; in [9] it was 18 mm.
Regarding `COc1ccc(-[n+]2noc([O-])c2CNc2ccc(Br)cc2)cc1`, the MIC in test [1] amounted to 200 mg/L (≈ 532 µM); in [2], 200 mg/L (≈ 532 µM); in [3] it was 300 mg/L (≈ 797 µM); in test [4] it was 300 mg/L (≈ 797 µM); in test [10] it was 200 mg/L (≈ 532 µM). In addition, the zone of inhibition at 300 µg/mL in test [5] was 15 mm; in [6], 13 mm; in test [7], 12 mm; in test [8], 13 mm; in test [9], 10 mm.
In the case of `COc1ccc(-[n+]2noc([O-])c2CNc2nc3c([N+](=O)[O-])cccc3s2)cc1`, the MIC in [1] came to 20 mg/L (≈ 50.1 µM); in test [2] it was 100 mg/L (≈ 250 µM); in test [3] it was 40 mg/L (≈ 100 µM); in test [4], 20 mg/L (≈ 50.1 µM); in [10], 20 mg/L (≈ 50.1 µM). Also, the zone of inhibition at 300 µg/mL in [5] turned out to be 32 mm; in [6] it was 18 mm; in test [7], 23 mm; in test [8], 30 mm; in [9], 27 mm.
Take `COc1ccc(-[n+]2noc([O-])c2Cn2c(-c3ccc(OC)c([N+](=O)[O-])c3)nc3ccccc32)cc1`: the MIC turned out to be 200 mg/L (≈ 422 µM) in test [1]; 200 mg/L (≈ 422 µM) in [2]; 200 mg/L (≈ 422 µM) in test [3]; 500 mg/L (≈ 1060 µM) in test [4]; 500 mg/L (≈ 1060 µM) in test [10]. In addition, the zone of inhibition at 300 µg/mL in [5] amounted to 16 mm; in test [6], 16 mm; in test [7], 14 mm; in test [8] it was 10 mm; in test [9], 10 mm.
In the case of `COc1ccc(-[n+]2noc([O-])c2Cn2c(-c3ccc(Cl)c(Cl)c3)nc3ccccc32)cc1`, the MIC in test [1] turned out to be 200 mg/L (≈ 428 µM); in [2] it was 300 mg/L (≈ 642 µM); in [3], 300 mg/L (≈ 642 µM); in [4], 300 mg/L (≈ 642 µM); in [10], 200 mg/L (≈ 428 µM). In addition, the zone of inhibition at 300 µg/mL in [5] was 15 mm; in test [6], 14 mm; in [7], 13 mm; in test [8], 12 mm; in [9], 11 mm.
With `CC1(C)S[C@@H]2[C@H](NC(=O)[C@H](N)c3ccccc3)C(=O)N2[C@H]1C(=O)O` [AMPICILLIN], the MIC in [2] was 100 mg/L (≈ 286 µM); in [3], 100 mg/L (≈ 286 µM); in test [4], 250 mg/L (≈ 715 µM); in test [10], 100 mg/L (≈ 286 µM). The zone of inhibition at 300 µg/mL in test [6] was 29 mm; in test [7], 31 mm; in [8], 26 mm; in test [9], 30 mm.
`OC(Cn1cncn1)(Cn1cncn1)c1ccc(F)cc1F` [FLUCONAZOLE] registered an MIC in [1] of 100 mg/L (≈ 327 µM). The zone of inhibition at 300 µg/mL in test [5] worked out at 25 mm.
On to `CN[C@@H]1[C@H](O[C@H]2[C@H](O[C@H]3[C@H](O)[C@@H](O)[C@H](N=C(N)N)[C@@H](O)[C@@H]3N=C(N)N)O[C@@H](C)[C@]2(O)C=O)O[C@@H](CO)[C@H](O)[C@H]1O` [STREPTOMYCIN], for which the MIC in [2] worked out at 0.5 mg/L (≈ 0.86 µM); in [3], 1 mg/L (≈ 1.72 µM); in [4], 0.125 mg/L (≈ 0.215 µM); in [10], 0.25 mg/L (≈ 0.43 µM). In addition, the zone of inhibition at 300 µg/mL was 34 mm in test [6], 28 mm in [7], 40 mm in [8] and 40 mm in test [9].
